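Results reflect a 48-hour exposure of cells in 96-well plates to compound at five concentrations. Definition used: TGI = concentration required for complete inhibition of growth.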
Experiments:
Assay in all cases: inhibition of tumour cell growth, NCI panel, 48 h
[1] = tested on: LOX IMVI melanoma
[2] = tested on: COLO 205 colon
[3] = tested on: EKVX NSCLC
[4] = tested on: K-562 leukemia
[5] = tested on: SK-MEL-2 melanoma
[6] = tested on: 786-0 renal
[7] = tested on: SF-539 CNS
[8] = tested on: SNB-78 CNS
[9] = tested on: SK-MEL-5 melanoma
[10] = tested on: IGROV1 ovarian
[11] = tested on: U251 CNS
[12] = tested on: NCI-H23 lung
[13] = tested on: M19-MEL melanoma
[14] = tested on: ACHN renal
[15] = tested on: HOP-92 NSCLC
[16] = tested on: OVCAR-8 ovarian
[17] = tested on: NCI-H460 lung
[18] = tested on: NCI-H226 lung
[19] = tested on: CAKI-1 renal
[20] = tested on: HCT-15 colon
[21] = tested on: SF-268 CNS
[22] = tested on: RPMI-8226 leukemia
[23] = tested on: SW-620 colon
[24] = tested on: KM20L2 colon
[25] = tested on: DLD-1 colon
[26] = tested on: TK-10 renal
[27] = tested on: DMS 114 small cell lung
[28] = tested on: SK-OV-3 ovarian
[29] = tested on: RXF 393 renal
[30] = tested on: RXF-631 renal
[31] = tested on: MOLT-4 leukemia
[32] = tested on: SK-MEL-28 melanoma
[33] = tested on: XF 498 CNS
[34] = tested on: HCT-116 colon
[35] = tested on: A549 NSCLC
[36] = tested on: MALME-3M melanoma
[37] = tested on: LXFL 529 NSCLC
[38] = tested on: SNB-19 CNS
[39] = tested on: SR leukemia
[40] = tested on: NCI-H522 lung
[41] = tested on: OVCAR-3 ovarian
[42] = tested on: SN12C renal
[43] = tested on: M14 melanoma
[44] = tested on: HOP-18 NSCLC
[45] = tested on: UACC-62 melanoma
[46] = tested on: A498 renal
[47] = tested on: UACC-257 melanoma
[48] = tested on: CCRF-CEM leukemia
[49] = tested on: SNB-75 CNS
[50] = tested on: HCC-2998 colon
[51] = tested on: UO-31 renal
[52] = tested on: SF-295 CNS
[53] = tested on: HL-60(TB) leukemia
[54] = tested on: DMS 273 small cell lung
[55] = tested on: HOP-62 NSCLC
[56] = tested on: HT29 colon
[57] = tested on: KM12 colon
[58] = tested on: OVCAR-5 ovarian
[59] = tested on: OVCAR-4 ovarian

CCOC(=O)c1c(C(F)(F)F)oc2c1ccc1nc3nonc3nc12 gave a TGI [1] of 31.8 µM, a TGI [2] of 55.1 µM and a TGI [3] of 33.3 µM. The TGI [4] was 13.9 µM, the TGI [5] was 33.8 µM and the TGI [6] was 25.3 µM. For the same compound, the TGI [7] was 32 µM, the TGI [8] was 23.2 µM and the TGI [9] was 26.7 µM. For the same compound, the TGI [10] was 55.7 µM, the TGI [11] was 29.1 µM and the TGI [12] was 18.3 µM. The TGI [13] was 38.2 µM, the TGI [14] was 29.4 µM and the TGI [15] was 27.3 µM. For the same compound, the TGI [16] was 30.4 µM, the TGI [17] was 49.6 µM and the TGI [18] was 36.1 µM. The TGI [19] was 27.3 µM, the TGI [20] was 32.6 µM and the TGI [21] was 38.6 µM. For the same compound, the TGI [22] was over 42.3 µM, the TGI [23] was 35.3 µM and the TGI [24] was 36.5 µM. For the same compound, the TGI [25] was 28.6 µM, the TGI [26] was 36.4 µM and the TGI [27] was 55.9 µM. It also gave a TGI [28] of 35.7 µM, a TGI [29] of 16.4 µM and a TGI [30] of 37.6 µM. The TGI [31] was 12.6 µM, the TGI [32] was 27.3 µM and the TGI [33] was 30.8 µM. For the same compound, the TGI [34] was 32.1 µM, the TGI [35] was 35 µM and the TGI [36] was 32 µM. The TGI [37] was 27.2 µM, the TGI [38] was 38.2 µM and the TGI [39] was 17.7 µM. The TGI [40] was 29.3 µM, the TGI [41] was 30.4 µM and the TGI [42] was 31.7 µM. For the same compound, the TGI [43] was 21 µM, the TGI [44] was 26 µM and the TGI [45] was 29.1 µM. For the same compound, the TGI [46] was 30.7 µM, the TGI [47] was 27.9 µM and the TGI [48] was 5.69 µM. The TGI [49] was 30 µM, the TGI [50] was 47.6 µM and the TGI [51] was 33.4 µM. For the same compound, the TGI [52] was over 63.3 µM, the TGI [53] was 32.5 µM and the TGI [54] was 34.4 µM. For the same compound, the TGI [55] was 18.9 µM, the TGI [56] was 28.9 µM and the TGI [57] was 51.3 µM. It also gave a TGI [58] of 31.6 µM and a TGI [59] of 24.9 µM.
